Assay results: ChEMBL document CHEMBL1148811, “N-benzoylpyrazoles are novel small-molecule inhibitors of human neutrophil elastase” (J Med Chem, 2007)

Test: Chemical stability in aqueous buffer at PH 7.3 by spontaneous hydrolysis
Format: physicochemical
In the case of `O=C(c1cc(F)ccc1Cl)n1cccn1`, the half-life is reported as 150 min.
In the case of `O=C(c1ccccc1Cl)n1cc(Cl)cn1`, the half-life is reported as 180 min.
For `Cc1ccccc1C(=O)n1cccn1`, the half-life was 72 min.
Molecule `O=C(c1cc(F)c(F)cc1Cl)n1cc(Br)cn1` has a half-life of 43.8 min.
Molecule `CC(C)(C)c1ccc(C(=O)n2cc(Cl)cn2)cc1` has a half-life of 132 min.
For `Cc1nn(C(=O)c2ccccc2F)c(C)c1Cl`, the half-life was 318 min.
With `O=C(c1ccc(F)cc1)n1cc(Cl)cn1` the half-life was 96 min.
Molecule `Cc1nn(C(=O)c2ccc(Cl)cc2)c(C)c1Cl` has a half-life of 156 min.
For `Cc1nn(C(=O)c2ccccc2Br)c(C)c1Cl`, the half-life was 750 min.
Molecule `Cc1cc(C)n(C(=O)c2ccc(C)c(Br)c2)n1` has a half-life of 1510 min.
With `Cc1nn(C(=O)c2ccc(Cl)cc2Cl)c(C)c1Cl` the half-life was 432 min.
With `Cc1nn(C(=O)c2ccc(Cl)c([N+](=O)[O-])c2)c(C)c1Cl` the half-life was 132 min.
Molecule `Cc1ccccc1C(=O)n1cc([N+](=O)[O-])cn1` has a half-life of 33 min.
In the case of `Cc1nn(C(=O)c2cccc(Br)c2)c(C)c1Br`, the half-life is reported as 186 min.
Work on `Cc1cc(C)n(C(=O)c2ccc(Cl)c(Cl)c2)n1` yielded a half-life of 600 min.
With `O=C(c1cccc([N+](=O)[O-])c1)n1cc(Cl)cn1` the half-life was 13.2 min.
In the case of `O=C(c1ccccc1)n1cc([N+](=O)[O-])cn1`, the half-life is reported as 2.4 min.
Work on `Cc1ccc(C(=O)n2cc(Br)cn2)cc1` yielded a half-life of 126 min.
`O=C(c1ccc(Cl)c(Cl)c1)n1cccn1` showed a half-life of 66 min.
In the case of `Cc1ccc(C(=O)n2ccc([N+](=O)[O-])n2)cc1`, the half-life is reported as 6 min.
In the case of `O=C(c1ccccc1)n1ccc([N+](=O)[O-])n1`, the half-life is reported as 1.98 min.
Molecule `Cc1ccccc1C(=O)n1cc(Br)cn1` has a half-life of 372 min.
`CC(=O)Nc1ccc(C(=O)n2ccc(C)n2)cc1` showed a half-life of 600 min.
For `COC(=O)c1ccnn1C(=O)c1ccc(Cl)cc1`, the half-life was 17.4 min.
`Cc1ccc(C(=O)c2ccn(C(=O)c3ccc(F)cc3)n2)c(C)c1` showed a half-life of 12.6 min.
`O=C(Nc1ccccc1)c1ccn(C(=O)c2ccccc2)n1` gave a half-life of 30.6 min.
Work on `O=C(c1ccccc1Cl)n1cccn1` yielded a half-life of 66 min.
In the case of `Cc1nn(C(=O)c2ccc(Cl)cc2)c(C)c1Br`, the half-life is reported as 126 min.
Molecule `Cc1ccccc1C(=O)n1cc(Cl)cn1` has a half-life of 252 min.
`Cc1cccc(C(=O)n2cc(Br)cn2)c1` gave a half-life of 306 min.
Work on `Cc1cc([N+](=O)[O-])nn1C(=O)c1ccccc1F` yielded a half-life of 9.6 min.
With `O=C(c1c(F)cccc1F)n1cc(Br)cn1` the half-life was 186 min.
`Cc1cc(C)n(C(=O)c2ccc(Cl)c([N+](=O)[O-])c2)n1` showed a half-life of 336 min.
`COc1cc(C(=O)n2ccc(C)n2)cc(OC)c1OC` gave a half-life of 252 min.
